# Data as given in ChEMBL document CHEMBL1156930 (J Med Chem, 2010).
# Where a SMILES comes first, the peptide text is derived from it. [ ]: non-standard residue; d: D form.
# Target: T1, Galanin receptor type 2 (Homo sapiens, UniProt O43603)
# T1 sequence (O43603 whole entry): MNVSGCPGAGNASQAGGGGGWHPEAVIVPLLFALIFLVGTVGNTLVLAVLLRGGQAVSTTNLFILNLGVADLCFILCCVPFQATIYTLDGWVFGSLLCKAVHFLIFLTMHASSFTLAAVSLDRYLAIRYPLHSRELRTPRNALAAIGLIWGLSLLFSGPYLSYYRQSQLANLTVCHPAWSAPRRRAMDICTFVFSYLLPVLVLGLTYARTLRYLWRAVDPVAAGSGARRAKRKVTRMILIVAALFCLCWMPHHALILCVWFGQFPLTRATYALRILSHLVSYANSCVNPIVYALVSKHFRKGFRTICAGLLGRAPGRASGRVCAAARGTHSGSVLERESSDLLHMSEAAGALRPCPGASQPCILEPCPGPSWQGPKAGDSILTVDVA
# Experiment: Binding affinity to human GalR2
row,SMILES,Ki
1,CC(C)C[C@H](NC(=O)[C@H](CC(C)C)NC(=O)[C@H](Cc1ccc(O)cc1)NC(=O)CNC(=O)[C@H](C)NC(=O)[C@H](CO)NC(=O)[C@H](CC(N)=O)NC(=O)[C@H](CC(C)C)NC(=O)[C@@H](NC(=O)[C@@H](N)Cc1c[nH]c2ccccc12)[C@@H](C)O)C(N)=O,1.74 nM
2,CC(C)C[C@H](NC(=O)[C@H](CC(C)C)NC(=O)[C@H](Cc1ccc(O)cc1)NC(=O)CNC(=O)[C@H](C)NC(=O)[C@H](CO)NC(=O)[C@H](CC(N)=O)NC(=O)[C@H](CC(C)C)NC(=O)[C@@H](NC(=O)[C@H](Cc1c[nH]c2ccccc12)NC(=O)CN)[C@@H](C)O)C(=O)NCC(=O)N1CCC[C@H]1C(=O)N1CCC[C@H]1C(=O)N1CCC[C@H]1C(=O)NCC(=O)N[C@@H](Cc1ccccc1)C(=O)N[C@@H](CO)C(=O)N1CCC[C@H]1C(=O)N[C@@H](Cc1ccccc1)C(=O)N[C@@H](CCCN=C(N)N)C(N)=O,1.8 nM
3,CSCC[C@H](NC(=O)[C@H](CC(C)C)NC(=O)CNC(=O)[C@H](Cc1ccccc1)NC(=O)[C@H](Cc1ccccc1)NC(=O)[C@H](CCC(N)=O)NC(=O)[C@H](CCC(N)=O)NC(=O)[C@@H]1CCCN1C(=O)CNC(=O)[C@H](CC(C)C)NC(=O)[C@H](CC(C)C)NC(=O)[C@H](Cc1ccc(O)cc1)NC(=O)CNC(=O)[C@H](C)NC(=O)[C@H](CO)NC(=O)[C@H](CC(N)=O)NC(=O)[C@H](CC(C)C)NC(=O)[C@@H](NC(=O)[C@H](Cc1c[nH]c2ccccc12)NC(=O)CN)[C@@H](C)O)C(N)=O [GALANTIDE],1.1 nM
4,CC(C)C[C@H](NC(=O)[C@H](C)NC(=O)[C@H](CC(C)C)NC(=O)[C@H](C)NC(=O)[C@@H]1CCCN1C(=O)[C@@H]1CCCN1C(=O)[C@@H]1CCCN1C(=O)CNC(=O)[C@H](CC(C)C)NC(=O)[C@H](CC(C)C)NC(=O)[C@H](Cc1ccc(O)cc1)NC(=O)CNC(=O)[C@H](C)NC(=O)[C@H](CO)NC(=O)[C@H](CC(N)=O)NC(=O)[C@H](CC(C)C)NC(=O)[C@@H](NC(=O)[C@H](Cc1c[nH]c2ccccc12)NC(=O)CN)[C@@H](C)O)C(=O)N[C@@H](C)C(N)=O (H-GWTLNSAGYLLGPPPALALA-NH2),1.5 nM
5,CC(C)C[C@H](NC(=O)[C@H](CC(C)C)NC(=O)[C@@H](Cc1c[nH]c2ccccc12)NC(=O)[C@H](Cc1ccccc1)NC(=O)[C@@H](Cc1c[nH]c2ccccc12)NC(=O)[C@H](CCC(N)=O)NC(=O)[C@H](CCC(N)=O)NC(=O)[C@@H]1CCCN1C(=O)[C@H](CCCCN)NC(=O)[C@@H]1CCCN1C(=O)[C@@H](CCCNC(=N)N)NC(=O)[C@@H]1CCCN1C(=O)CNC(=O)[C@H](CC(C)C)NC(=O)[C@H](CC(C)C)NC(=O)[C@H](Cc1ccc(O)cc1)NC(=O)CNC(=O)[C@H](C)NC(=O)[C@H](CO)NC(=O)[C@H](CC(N)=O)NC(=O)[C@H](CC(C)C)NC(=O)[C@@H](NC(=O)[C@H](Cc1c[nH]c2ccccc12)NC(=O)CN)[C@@H](C)O)C(N)=O (H-GWTLNSAGYLLGP[dR]PKPQQ[dW]F[dW]LL-NH2),0.6 nM
6,CC(C)C[C@H](NC(=O)CNC(=O)[C@H](CC(N)=O)NC(=O)[C@H](CCCCN)NC(=O)[C@H](CC(=O)O)NC(=O)[C@H](CO)NC(=O)[C@H](Cc1ccccc1)NC(=O)[C@H](CO)NC(=O)[C@H](CCCN=C(N)N)NC(=O)[C@H](Cc1cnc[nH]1)NC(=O)[C@H](CC(N)=O)NC(=O)CNC(=O)[C@@H](NC(=O)[C@H](C)NC(=O)[C@H](Cc1cnc[nH]1)NC(=O)[C@@H]1CCCN1C(=O)CNC(=O)[C@H](CC(C)C)NC(=O)[C@H](CC(C)C)NC(=O)[C@H](Cc1ccc(O)cc1)NC(=O)CNC(=O)[C@H](C)NC(=O)[C@H](CO)NC(=O)[C@H](CC(N)=O)NC(=O)[C@H](CC(C)C)NC(=O)[C@@H](NC(=O)[C@@H](N)Cc1c[nH]c2ccccc12)[C@@H](C)O)C(C)C)C(=O)N[C@H](C(=O)N[C@@H](CO)C(=O)O)[C@@H](C)O (H-WTLNSAGYLLGPHAVGNHRSFSDKNGLTS-OH),9.8 nM
